Legend:
[1] = cited from earlier work
SARS-CoV-2 = assay type: cell-based, SARS-CoV-2 (βCoV/KOR/KCDC03/2020); details: Severe acute respiratory syndrome coronavirus 2, Vero; for IC50: read-out: IC50 against SARS-CoV-2 infection
Vero cells = details: at concentration 12.50 μM

| SMILES | IC50 (SARS-CoV-2) [µM] | further results |
| --- | --- | --- |
| C=C(C)[C@@H]1CCC(C)=C[C@H]1c1c(O)cc(CCCCC)cc1O [CBD, Cannabidiol] | 7.91 | safe dose ([1]; humans, concluded from literature dosing): up to 60 mg per day; safety of a single oral dose ([1]; single oral dose 100 mg, healthy volunteers): safe and tolerable; inhibition at 12.5 µM (SARS-CoV-2; read-out: inhibition of SARS-CoV-2 virus): 99.2%; Vero cell survival ratio (Vero cells): 97.46% |
| C=C(C)[C@@H]1CCC(C)=C[C@H]1c1c(O)cc(CCCCC)c(C(=O)O)c1O [CBDA, Cannabidiolic acid] | 37.6 | – |
| CCCCCc1cc(O)c2c(c1)OC(C)(C)c1ccc(C)cc1-2 [CBN, Cannabinol] | 11.1 | – |
| CCC(CC)COC(=O)[C@H](C)N[P@](=O)(OC[C@H]1O[C@@](C#N)(c2ccc3c(N)ncnn23)[C@H](O)[C@@H]1O)Oc1ccccc1 [remdesivir, reference compound] | 8.17 | – |
| CCN(CC)CCCC(C)Nc1ccnc2cc(Cl)ccc12 (centres unmarked) [chloroquine, reference compound] | 9.78 | – |
| Cc1cccc(C)c1OCC(=O)N[C@@H](Cc1ccccc1)[C@@H](O)C[C@H](Cc1ccccc1)NC(=O)[C@H](C(C)C)N1CCCNC1=O [lopinavir, reference compound] | 13.2 | – |
| CCCCCc1cc(O)c2c(c1)OC(C)(C)[C@@H]1CCC(C)=C[C@@H]21 [Δ^9-THC, Δ^9-tetrahydrocannabinol] | 10.2 | – |
